The record followed here is ChEMBL document CHEMBL1136907, “Structural insight into human CK2alpha in complex with the potent inhibitor ellagic acid” (Bioorg Med Chem Lett, 2009).

As usually defined, the Ki is a measure of affinity in units of concentration, obtained from inhibition or displacement. Read a low Ki as tighter binding. The term IC50 denotes the midpoint of a concentration-inhibition curve. A lower IC50 goes with higher potency.

The nature of test [1]: Inhibition of rat liver CK2 by Lineweaver-Burke double reciprocal plot analysis.
Test [2] can be described thus: Inhibition of rat liver CK2 catalytic activity.
Test [3] is described as follows: Inhibition of PKA.
Test [4] in a line: Inhibition of PKC.

Regarding `O=c1oc2c(O)c(O)cc3c(=O)oc4c(O)c(O)cc1c4c23` [ELLAGIC ACID], the affinity in test [1], expressed as Ki, was 20 nM. For the same compound, the IC50 in test [2] is 40 nM; in test [3], 2000 nM; in test [4], 8000 nM.
